The values that follow come from US20150010475A1, “CRLF-2 BINDING PEPTIDES, PROTOCELLS AND VIRAL-LIKE PARTICLES USEFUL IN THE TREATMENT OF CANCER, INCLUDING ACUTE LYMPHOBLASTIC LEUKEMIA (ALL)” (STC. UNM, priority 2011, published 2015).

Values after ≈ are worked out from the molar mass of the structure shown. Bounds are passed on as bounds.

In one data set the target is T1, CRLF2 (Homo sapiens, UniProt Q9HC73).
T1 construct: expressed in transfected cells
T1 sequence (Q9HC73 23-371): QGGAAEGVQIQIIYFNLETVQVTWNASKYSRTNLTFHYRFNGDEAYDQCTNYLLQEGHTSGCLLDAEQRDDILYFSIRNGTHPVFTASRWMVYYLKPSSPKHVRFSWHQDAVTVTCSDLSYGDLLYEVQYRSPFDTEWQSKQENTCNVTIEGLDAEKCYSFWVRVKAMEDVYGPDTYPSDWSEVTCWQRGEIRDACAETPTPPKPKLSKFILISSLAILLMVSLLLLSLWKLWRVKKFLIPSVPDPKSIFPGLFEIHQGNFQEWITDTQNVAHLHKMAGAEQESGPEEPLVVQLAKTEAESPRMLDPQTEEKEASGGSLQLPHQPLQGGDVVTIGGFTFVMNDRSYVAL
Put plainly: Flow cytometry binding of M13 phage displaying peptide to BaF3-CRLF2 cells. The note with it: for binding to CRLF2 (peptides pulled from enriched phage population): phage display selection on BaF3 cells expressing CRLF2. Here is the method: (§1) Flow cytometry is used to evaluate binding of individual phage clones within consensus sequences. In this case, a saturable binding curve can be constructed, allowing for the determination of the dissociation constant (Kd) of phage displaying potentially specific peptides that bind cells with high levels of CRLF2 expression but not parental cell lines with minimal expression.
The selections were carried out on BaF3 cells that had been induced to create the cell receptor CRLF2 and express it on their surface. Negative selections were carried out on the parental cell line (no CRLF2) in order to assure that the ligand identified was in fact binding to the desired target and not to other features on the surface of the cells.
(§2) Affinity selections on cellular targets are complicated by the heterogeneity of surface protein expression on mammalian cells, which frequently results in a large number of peptides that bind unsuitable targets. A major goal of the work we propose is to create an efficient selection/counter-selection scheme. To illustrate our strategy, the gene encoding human CRLF2 was introduced into BaF3 cells (a murine IL3-dependent pro-B cell line) and the protein's abundant surface expression was confirmed by FACS (as shown in Project 2). The resulting BaF3-CRLF2 cells, together with the BaF3 parental line (which specifically lacks CRLF2), served as a matched selection/counter-selection pair and provided a convenient means of discarding affinity selectants that bind the many non-CRLF2 receptors inevitably encountered on the BaF3 surface.
(§3) In this case, a saturable binding curve can be constructed, allowing for the determination of the disassociation constant (Kd) of phage displaying potential specific peptides that bind cells with high levels of CRLF2 expression but not parental cell lines with minimal expression. Data shown for the MTAAPVH phage clone on BaF3/CRLF2 (A) and parental BaF3 cells. (B) Binding curves were constructed by titrating the amount of phage with constant cell concentrations in order to quantitatively describe binding. Non-specific binding was determined by incubating wild-type phage with the same cell lines.
CRLF2 may be targeted using its natural ligand TSLP or with peptides that are specifically directed towards CRLF2; both approaches are being developed. […] Peptides selected by affinity for Ba-F3-CRLF2 cells were counter-selected against parental Ba-F3 cells to eliminate any phage binding receptors common to both cell types. We find that a matched selection/counter-selection pair greatly increases the specificity of the affinity selection process. It is important to note that in the VLP screening method, each VLP encapsidates its own mRNA. This means that the nucleotide sequences encoding any particular VLP and its guest peptide or protein are contained within the particle itself and can be recovered by reverse transcription and polymerase chain reaction.

In data set [1] the target is human CRLF2 expressed on the cell surface (BaF3-CRLF2, REH-CRLF2, MHH CALL 4, MUTZ5 cells) (human) (UniProt Q9HC73). Put plainly: protocell binding to BaF3-CRLF2, MUTZ5 and MHHCALL4 cells, against untargeted protocells, the parental BAF3 line or CRLF2(-) NALM6 cells (FIG. 19, 20).
The subject of a further data set is BaF3 parental cells. Put plainly: Flow cytometry binding of M13 phage displaying peptide to BaF3 parental cells. Also on record: species or system murine.
Excerpt: as §1, §2, §3
CRLF2 may be targeted using its natural ligand TSLP or with peptides that are specifically directed towards CRLF2; both approaches are being developed. […]
For orientation: In flow cytometry, cells or beads pass a laser one at a time.

Data set [2] deals with MHH CALL 4, Mutz-5 and BaF3/CRLF-2 cells. The data set can be described thus: Internalization of CRLF-2-targeted protocells by target cells. The data set is classed as cell-based, human. The note with it: peptide on protocell surface. Here is the method:
The upper-left portion of FIG. 7 depicts the internalization efficacy of CRLF-2-targeted protocells in the absence of the R8 peptide. The upper right portion of FIG. 7 presents images of CRLF-2-positive (MHH CALL 4) and CRLF-2-negative (MOLT 4) cells exposed to targeted protocells for 37° C. for two hours. N.D.=not detectable; bilayer composition=DOIDA in DSPC with 5 wt % DSPE; approximate peptide density=10 targeting peptides/protocell and ˜500 H5WYG peptides/protocell. Targeted protocells can become internalized within target cells (MHH CALL 4, Mutz-5 and BaF3/CRLF-2) over time. However, overall internalization efficiency is only ˜20%, which could lead to non-specific cytotoxicity. The lower-left portion of FIG. 7 depicts the internalization efficacy of CRLF-2-targeted protocells in the presence of the R8 peptide. The lower right portion of FIG. 7 presents images of CRLF-2-positive (MHH CALL 4) and CRLF-2-negative (MOLT 4) cells exposed to targeted protocells for 37° C. for two hours. N.D.=not detectable; bilayer composition=DOIDA in DSPC with 5 wt % DSPE; approximate peptide density=10 targeting peptides/protocell and −500 H5WYG peptides/protocell.
The upper-left portion of FIG. 8 depicts internalization kinetics for CRLF-2-targeted protocells in the absence and presence of the R8 peptide. […]

The subject of the next data set is Hep3B. The data set can be described thus: Cytotoxicity of DOX, free or delivered in protocells or liposomes, in Hep3B. Format: cell-based. The settings on record: as DOX. An excerpt:
For toxicology studies there are two major issues which must be addressed: silica loading in the tissues, derived from the mesoporous silica core of the protocell, and non-targeted or “off target” delivery of the therapeutic cargos to normal tissues. […] Nevertheless, we will systematically evaluate all major organs and tissues in treated mice for silica deposition and cellular damage after treatment with loaded and unloaded protocells. […] As a benchmark, we compared oxidative stress and cell viability of neutral, positively and negatively-charged targeted protocells with corresponding liposomes and other control particles at 10^9 particles/mL corresponding to ˜1-2 μg/mL (FIG. 24). […] In preliminary studies (FIG. 25), we also compared the IgG response of C57Bl/6 mice immunized twice with 10 μg doses of targeted and SP94-targeted protocells to that of virus-like particles (VLPs) conjugated to the same concentration of targeting peptide (MS2 SP94). […] When considering therapeutically administered doses, for the hepatocellular carcinoma cell line Hep3B, the LC50 and LC90 values of free DOX are 150 and 500 ng/mL, respectively. […] As discussed above, Si loading will be assessed by ICP-MS. […]

In data set [3] the target is T2, human CRLF2 expressed on the cell surface (BaF3-CRLF2, REH-CRLF2, MHH CALL 4, MUTZ5 cells) (human, UniProt Q9HC73 23-371).
T2 construct: whole, on cells; Parental BaF3 / REH cells lack CRLF2 and served as negative controls; also called TSLP receptor; TSLPR
T2 sequence (looked up): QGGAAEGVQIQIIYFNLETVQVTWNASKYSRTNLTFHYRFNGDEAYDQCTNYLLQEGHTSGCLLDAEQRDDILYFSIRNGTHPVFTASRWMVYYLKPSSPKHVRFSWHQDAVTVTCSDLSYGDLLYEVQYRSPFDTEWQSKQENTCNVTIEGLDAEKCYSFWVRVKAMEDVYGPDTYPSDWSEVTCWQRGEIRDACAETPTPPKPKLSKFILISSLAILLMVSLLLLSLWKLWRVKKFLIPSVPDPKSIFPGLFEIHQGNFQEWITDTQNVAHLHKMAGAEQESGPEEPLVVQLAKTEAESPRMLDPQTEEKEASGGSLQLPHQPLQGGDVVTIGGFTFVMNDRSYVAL
Put plainly: flow cytometry, Alexa-fluor-647 labeled particles incubated 1 h with BaF3/CRLF-2 cells.

Data set [4] deals with T3, human CRLF2 expressed on the cell surface (BaF3-CRLF2, REH-CRLF2, MHH CALL 4, MUTZ5 cells) (human), Q9HC73.
T3 chain: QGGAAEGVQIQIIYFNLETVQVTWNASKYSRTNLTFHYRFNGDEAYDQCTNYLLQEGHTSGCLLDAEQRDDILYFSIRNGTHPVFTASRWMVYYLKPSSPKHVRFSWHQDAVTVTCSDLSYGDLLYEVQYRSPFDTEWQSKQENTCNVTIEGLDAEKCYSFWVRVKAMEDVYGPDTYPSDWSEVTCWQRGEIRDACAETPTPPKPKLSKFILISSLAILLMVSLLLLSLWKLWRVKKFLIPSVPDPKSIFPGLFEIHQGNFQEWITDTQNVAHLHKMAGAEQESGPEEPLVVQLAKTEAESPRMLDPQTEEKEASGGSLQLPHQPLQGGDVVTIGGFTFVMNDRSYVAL
Put plainly: binding of M13 phage to BaF3-CRLF2 cells (FIG. 18).

Data set [5] deals with T3, human CRLF2 expressed on the cell …. Put plainly: flow cytometry, M13 phage on BaF3-CRLF2 cells (FIG. 3).

A word on the Kd: it is a measure of binding affinity in units of concentration.

FSYLPSH: the “binding to CRLF2 (peptides pulled from enriched phage population)” value (“binding to CRLF2” below) with CRLF2 is listed as “exhibited binding to CRLF2”.

Take “CRLF2-targeted protocells conjugated with the CRLF2-targeting peptide TDAHASV”: the fold higher affinity in data set [1] came to 1000 fold.

Consider MTAAPVH, for which the “Specific binding of phage clone to CRLF2 positive cells” value in the data set with CRLF2 (BaF3/CRLF2, non-specific binding from wild-type phage) is “significant”. Also, in the data set with CRLF2, the “binding to CRLF2” value was “best binder”. Besides, the “Specific binding of phage clone to the parental cells” value with BaF3 parental cells (parental BaF3) is listed as “extremely minimal”. Moreover, the “promotion of internalization of protocells by CRLF2-positive cells” value in data set [2] is “does not promote rapid internalization”.

Consider TDAHASV [peptide ligand to CRLF2], for which the Kd was 27.9 nM on CRLF2 (peptide displayed on M13 phage, BaF3-CRLF2 cells) and less than 3000 nM in the data set with BaF3 parental cells (peptide displayed on M13 phage, read-out: Kd for the BaF3 parental line). The “binding to CRLF2” value at CRLF2 was “exhibited binding to CRLF2”. Further, the “binding to the BaF3 parent” value with BaF3 parental cells (peptide displayed on M13 phage) is given as “not showing significant binding”.

Turning to `COc1cccc2c1C(=O)c1c(O)c3c(c(O)c1C2=O)C[C@@](O)(C(=O)CO)C[C@@H]3O[C@H]1C[C@H](N)[C@H](O)[C@H](C)O1` [free DOX, doxorubicin], in the data set with Hep3B, the LC50 stood at 0.15 µg/mL (≈ 0.276 µM) and the LC90 turned out to be 0.5 µg/mL (≈ 0.92 µM).

For the molecule “RRRRRRRR [R8, 8 mer polyarginine that promotes internalization, reference compound]”, the “promotion of internalization of protocells by CRLF2-positive cells” value in data set [2] is given as “promoted this selective internalization in a density-dependent manner”.

B1: VLPs not displaying any additional peptides (other)
chain: ASNFTQFVLVDNGGTGDVTVAPSNFANGVAEWISSNSRSQAYKVTCSVRQSSAQNRKYTIKVEVPKVATQTVGGVELPVAAWRSYLNMELTIPIFATNSDCELIVKAMQGLLKDGNPIPSAIAANSGIY
notes: Control particle; also called nontargeted VLPs; particles not displaying any additional peptides
With B1, in data set [3], the binding result is “no binding”.

As to TDAHASV (modifications not checked) [M13 filamentous phage displaying the CRLF2-binding peptide TDAHASV], the Kd in data set [4] was found to be 27.9 nM; in data set [5] it was 3 nM.
